Laboratory results from patent US9713613B2, “Methods and compositions for the treatment of cancer and related hyperproliferative disorders” (priority 2007, dated 2017).

Columns and labels:
SCAP = target: T1, SCAP (Cricetulus griseus, UniProt P97260); assay: Binding assay, biotinylated fatostatin on Neutravidine-agarose beads, CHO-K1 membrane extract; design: species or system Chinese hamster; conditions: not bound: SREBP-1, SREBP-2, ATF6
T1 construct: endogenous in cells; host or cells: CHO-K1 (membrane fraction extracted with 0.1% FOS-Choline 10)
T1 sequence (P97260 1-1276): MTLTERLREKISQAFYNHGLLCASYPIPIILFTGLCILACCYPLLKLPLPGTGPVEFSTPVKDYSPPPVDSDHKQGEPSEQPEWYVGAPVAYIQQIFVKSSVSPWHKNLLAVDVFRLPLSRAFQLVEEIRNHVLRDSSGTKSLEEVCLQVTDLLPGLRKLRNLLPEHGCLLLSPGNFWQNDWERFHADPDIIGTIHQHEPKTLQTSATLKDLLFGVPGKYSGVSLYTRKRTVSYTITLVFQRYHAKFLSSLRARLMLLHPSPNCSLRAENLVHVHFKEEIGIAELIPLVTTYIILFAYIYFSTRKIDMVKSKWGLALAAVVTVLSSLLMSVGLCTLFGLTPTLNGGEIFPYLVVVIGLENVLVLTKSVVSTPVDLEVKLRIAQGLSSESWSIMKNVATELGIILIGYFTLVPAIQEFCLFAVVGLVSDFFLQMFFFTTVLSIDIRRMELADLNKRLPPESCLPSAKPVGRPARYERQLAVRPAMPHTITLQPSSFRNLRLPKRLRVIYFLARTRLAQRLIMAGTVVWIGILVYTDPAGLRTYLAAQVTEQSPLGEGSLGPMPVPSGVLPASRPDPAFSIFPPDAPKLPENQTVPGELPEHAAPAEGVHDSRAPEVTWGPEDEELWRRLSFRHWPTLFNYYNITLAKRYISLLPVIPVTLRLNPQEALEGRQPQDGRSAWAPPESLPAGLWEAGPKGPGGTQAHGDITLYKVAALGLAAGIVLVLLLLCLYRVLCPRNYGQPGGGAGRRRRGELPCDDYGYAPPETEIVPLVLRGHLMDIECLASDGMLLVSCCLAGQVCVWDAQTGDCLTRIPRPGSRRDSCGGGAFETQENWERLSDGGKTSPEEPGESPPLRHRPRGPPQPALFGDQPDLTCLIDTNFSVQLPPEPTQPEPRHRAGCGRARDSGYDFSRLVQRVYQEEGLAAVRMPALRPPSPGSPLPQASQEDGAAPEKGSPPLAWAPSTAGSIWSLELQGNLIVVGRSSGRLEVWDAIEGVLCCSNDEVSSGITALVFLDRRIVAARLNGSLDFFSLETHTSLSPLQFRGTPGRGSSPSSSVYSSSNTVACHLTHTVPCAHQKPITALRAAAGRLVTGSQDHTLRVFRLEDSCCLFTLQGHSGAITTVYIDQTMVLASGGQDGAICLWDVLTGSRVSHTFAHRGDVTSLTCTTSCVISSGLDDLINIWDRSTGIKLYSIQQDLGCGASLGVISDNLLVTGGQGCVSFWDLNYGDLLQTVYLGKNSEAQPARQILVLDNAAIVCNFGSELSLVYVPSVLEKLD
Excerpt: The selective ER localization implies that fatostatin binds to a protein in the ER; the most likely candidate is SCAP, the target of cholesterol for the control of SREBP (Radhakrishnan et al., 2004). To test this hypothesis, proteins bound to a fatostatin-polyproline linker-biotin conjugate (FIG. 20A) (Sato et al., 2007) were purified from cell lysates and analyzed by western blots with antibodies against SCAP, SREBP-1, SREBP-2, and ATF6, an unrelated ER-bound transcription factor (Ye et al., 2000). […] The binding was lost upon addition of excess fatostatin, but not excess cholesterol (FIG. 20D), raising the possibility that fatostatin may interact with SCAP in a site distinct from that of cholesterol.
Binding assay. Cell membrane fractions were prepared as described in Supplementary Methods. The membrane fraction was extracted with PBS containing 0.1% FOS-Choline 10 (Hampton Research). The extract was mixed with Neutravidine-agarose beads (10 μL) saturated with biotinylated fatostatin and incubated for 1 h. The bound proteins were washed four times with PBS containing 0.1% FOS-Choline 10, boiled in 25 μL of SDS sample buffer, and subjected to western blotting. For the competition assay, saturated amounts of cholesterol or fatostatin were added to the membrane extract before incubating with the beads.

MOLT-4 cells = assay: MOLT-4 cell growth, MTT assay; format: cell-based, human; conditions: 48 hours
Method: 10,000 MOLT-4 cells (FIGS. 35A-35C) and 20,000 RPM18226 cells (FIGS. 35D-35F) were seeded onto 96 well plate in RPMI 1640 medium containing 5% FBS or fat-free charcoal treated serum (FF-FBS) for 24 hours at 37 C. MOLT-4 and RPM18226 cells were treated for additional 48 hours with different concentrations of compound 19 (None control without DMSO, Vehicle with DMSO, 1, 2, 5, 10 and 20 μM in DMSO; RPM18226 cells also were treated with 3 μM in DMSO). At the end of 48 hours cells were subjected to MTT assay to determine viability. Values are depicted as means±SD; *P<0.05.
20,000 MOLT-4 cells (FIGS. 36A-36C) and 20,000 RPM18226 cells (FIGS. 36D-36F) cells were seeded onto 96 well plates in RPMI 1640 Medium containing 5% Fetal bovine serum (FBS) or 5% fat free charcoal treated serum (FF-FBS) for 24 hours at 37 C. Cells then were treated for additional 48 hours with different concentrations of compound 17 (None control without DMSO, Vehicle with DMSO, 1, 2, 3, 5, 10 and 20 μM in DMSO). At the end of the 48 hours treatment cells were subjected to MTT assay to determine viability. Values are depicted as means±SD (n=3); **P<0.001; ***P<0.0001.
MOLT-4 cells were grown at two different conditions under 5% fetal bovine serum (FBS) and under 5% FBS fat free serum (charcoal treated serum). 10,000 Cells were seeded a 96 well plate for 24 hours before starting the treatment with different concentrations of compound 19. Compound 19 dissolved in DMSO was added to cells for 48 hours before determining cell growth using MTT assay. […] Compound 19 inhibited cell growth about 75-80% at 10 and 20 μM under both growth conditions.
MOLT-4 cells were grown at two different conditions under 5% fetal bovine serum (FBS) and under 5% FBS fat free serum (charcoal treated serum). 20,000 cells were seeded into a 96 well plate for 24 hours before starting the treatment with different concentrations of compound 17. Compound 17 dissolved in DMSO was added to cells for 48 hours before determining cell growth using MTT assay. […] Compound 17 inhibited cell growth about 85-100% at 5, 10 and 20 μM under both growth conditions. Under both 5% FBS and 5% FBS fat free sera there was a strong trend of inhibition starting at 1 μM (FIGS. 36B-36C).

| SMILES | binding to SCAP (western blot of bound proteins) (SCAP) | growth inhibition (MOLT-4 cells; 2 and 5 μM, FBS fat free serum) | inhibition of cell growth (MOLT-4 cells; 10 and 20 μM, 5% FBS and 5% FBS fat free) |
| --- | --- | --- | --- |
| CCCc1cc(-c2nc(-c3ccc(C)cc3)cs2)ccn1 [Compound 1, 2-propyl-4-(4-p-tolylthiazol-2-yl)pyridine] | bound to SCAP |  |  |
| CCCc1cc(-c2nc(-c3ccc(NS(C)(=O)=O)cc3)cs2)ccn1 [Compound 19, N-(4-(2-(2-propylpyridin-4-yl)thiazol-4-yl)phenyl)methanesulfonamide] |  | 30-50% | 75-80% |
